Assay results reported in the NIST ThermoML archive (doi:10.1021/je5009679).

Settings: Liquid; for viscosity: Concentric cylinders viscometry

CCOP(=O)([O-])OCC.CCn1cc[n+](C)c1 [1-ethyl-3-methylimidazolium diethyl phosphate]
101.33 kPa
Settings | viscosity [mPa·s]
293.15 K | 664.7
303.15 K | 317.3
313.15 K | 173.9
323.15 K | 103.8
333.15 K | 66.37
343.15 K | 44.92
353.15 K | 31.86
363.15 K | 23.5
373.15 K | 17.92

Settings | mass density [kg/m3]
293.15 K, 101.33 kPa, Vibrating tube method | 1148.2
303.15 K, 101.33 kPa, Vibrating tube method | 1141.2
311.4 K, 10000 kPa, Bellows volumetry | 1140.5
311.4 K, 20000 kPa, Bellows volumetry | 1145.4
311.4 K, 30000 kPa, Bellows volumetry | 1150.1
311.4 K, 40000 kPa, Bellows volumetry | 1154.6
311.4 K, 50000 kPa, Bellows volumetry | 1158.9
311.4 K, 60000 kPa, Bellows volumetry | 1163
311.4 K, 70000 kPa, Bellows volumetry | 1167
311.4 K, 80000 kPa, Bellows volumetry | 1170.9
311.4 K, 90000 kPa, Bellows volumetry | 1174.6
311.4 K, 100000 kPa, Bellows volumetry | 1178.3
311.4 K, 110000 kPa, Bellows volumetry | 1181.8
311.4 K, 120000 kPa, Bellows volumetry | 1185.2
311.4 K, 130000 kPa, Bellows volumetry | 1188.6
311.4 K, 140000 kPa, Bellows volumetry | 1191.8
311.4 K, 150000 kPa, Bellows volumetry | 1195.2
311.4 K, 160000 kPa, Bellows volumetry | 1198.2
311.4 K, 170000 kPa, Bellows volumetry | 1201.4
311.4 K, 180000 kPa, Bellows volumetry | 1204.4
311.4 K, 190000 kPa, Bellows volumetry | 1207.3
311.4 K, 200000 kPa, Bellows volumetry | 1210.3
313.15 K, 101.33 kPa, Vibrating tube method | 1134.4
323.15 K, 101.33 kPa, Vibrating tube method | 1127.8
331.3 K, 10000 kPa, Bellows volumetry | 1127.5
331.3 K, 20000 kPa, Bellows volumetry | 1132.6
331.3 K, 30000 kPa, Bellows volumetry | 1137.6
331.3 K, 40000 kPa, Bellows volumetry | 1142.3
331.3 K, 50000 kPa, Bellows volumetry | 1146.8
331.3 K, 60000 kPa, Bellows volumetry | 1151.2
331.3 K, 70000 kPa, Bellows volumetry | 1155.3
331.3 K, 80000 kPa, Bellows volumetry | 1159.4
331.3 K, 90000 kPa, Bellows volumetry | 1163.2
331.3 K, 100000 kPa, Bellows volumetry | 1167.1
331.3 K, 110000 kPa, Bellows volumetry | 1170.7
331.3 K, 120000 kPa, Bellows volumetry | 1174.4
331.3 K, 130000 kPa, Bellows volumetry | 1177.8
331.3 K, 140000 kPa, Bellows volumetry | 1181.3
331.3 K, 150000 kPa, Bellows volumetry | 1184.8
331.3 K, 160000 kPa, Bellows volumetry | 1187.9
331.3 K, 170000 kPa, Bellows volumetry | 1191
331.3 K, 180000 kPa, Bellows volumetry | 1194.1
331.3 K, 190000 kPa, Bellows volumetry | 1197.3
331.3 K, 200000 kPa, Bellows volumetry | 1200.2
333.15 K, 101.33 kPa, Vibrating tube method | 1121.2
343.15 K, 101.33 kPa, Vibrating tube method | 1114.6
351.4 K, 10000 kPa, Bellows volumetry | 1114.6
351.4 K, 20000 kPa, Bellows volumetry | 1120
351.4 K, 30000 kPa, Bellows volumetry | 1125.2
351.4 K, 40000 kPa, Bellows volumetry | 1130.2
351.4 K, 50000 kPa, Bellows volumetry | 1134.9
351.4 K, 60000 kPa, Bellows volumetry | 1139.5
351.4 K, 70000 kPa, Bellows volumetry | 1144
351.4 K, 80000 kPa, Bellows volumetry | 1148.1
351.4 K, 90000 kPa, Bellows volumetry | 1152.2
351.4 K, 100000 kPa, Bellows volumetry | 1156.1
351.4 K, 110000 kPa, Bellows volumetry | 1159.9
351.4 K, 120000 kPa, Bellows volumetry | 1163.6
351.4 K, 130000 kPa, Bellows volumetry | 1167.2
351.4 K, 140000 kPa, Bellows volumetry | 1170.7
351.4 K, 150000 kPa, Bellows volumetry | 1174.2
351.4 K, 160000 kPa, Bellows volumetry | 1177.5
351.4 K, 170000 kPa, Bellows volumetry | 1180.8
351.4 K, 180000 kPa, Bellows volumetry | 1184
351.4 K, 190000 kPa, Bellows volumetry | 1187.1
351.4 K, 200000 kPa, Bellows volumetry | 1190.3
353.15 K, 101.33 kPa, Vibrating tube method | 1108
363.15 K, 101.33 kPa, Vibrating tube method | 1101.5
371.6 K, 10000 kPa, Bellows volumetry | 1102
371.6 K, 20000 kPa, Bellows volumetry | 1107.7
371.6 K, 30000 kPa, Bellows volumetry | 1113.3
371.6 K, 40000 kPa, Bellows volumetry | 1118.5
371.6 K, 50000 kPa, Bellows volumetry | 1123.4
371.6 K, 60000 kPa, Bellows volumetry | 1128.2
371.6 K, 70000 kPa, Bellows volumetry | 1132.7
371.6 K, 80000 kPa, Bellows volumetry | 1137.2
371.6 K, 90000 kPa, Bellows volumetry | 1141.3
371.6 K, 100000 kPa, Bellows volumetry | 1145.5
371.6 K, 110000 kPa, Bellows volumetry | 1149.4
371.6 K, 120000 kPa, Bellows volumetry | 1153.2
371.6 K, 130000 kPa, Bellows volumetry | 1157
371.6 K, 140000 kPa, Bellows volumetry | 1160.6
371.6 K, 150000 kPa, Bellows volumetry | 1164.2
371.6 K, 160000 kPa, Bellows volumetry | 1167.7
371.6 K, 170000 kPa, Bellows volumetry | 1171
371.6 K, 180000 kPa, Bellows volumetry | 1174.3
371.6 K, 190000 kPa, Bellows volumetry | 1177.5
371.6 K, 200000 kPa, Bellows volumetry | 1180.8
373.15 K, 101.33 kPa, Vibrating tube method | 1094.9
391.6 K, 10000 kPa, Bellows volumetry | 1089.8
391.6 K, 20000 kPa, Bellows volumetry | 1095.6
391.6 K, 30000 kPa, Bellows volumetry | 1101.5
391.6 K, 40000 kPa, Bellows volumetry | 1107
391.6 K, 50000 kPa, Bellows volumetry | 1112.3
391.6 K, 60000 kPa, Bellows volumetry | 1117.2
391.6 K, 70000 kPa, Bellows volumetry | 1122
391.6 K, 80000 kPa, Bellows volumetry | 1126.6
391.6 K, 90000 kPa, Bellows volumetry | 1131
391.6 K, 100000 kPa, Bellows volumetry | 1135.2
391.6 K, 110000 kPa, Bellows volumetry | 1139.4
391.6 K, 120000 kPa, Bellows volumetry | 1143.4
391.6 K, 130000 kPa, Bellows volumetry | 1147.1
391.6 K, 140000 kPa, Bellows volumetry | 1151
391.6 K, 150000 kPa, Bellows volumetry | 1154.6
391.6 K, 160000 kPa, Bellows volumetry | 1158.1
391.6 K, 170000 kPa, Bellows volumetry | 1161.5
391.6 K, 180000 kPa, Bellows volumetry | 1165
391.6 K, 190000 kPa, Bellows volumetry | 1168.2
391.6 K, 200000 kPa, Bellows volumetry | 1171.5
411.7 K, 10000 kPa, Bellows volumetry | 1077.9
411.7 K, 20000 kPa, Bellows volumetry | 1084.3
411.7 K, 30000 kPa, Bellows volumetry | 1090.4
411.7 K, 40000 kPa, Bellows volumetry | 1096.2
411.7 K, 50000 kPa, Bellows volumetry | 1101.7
411.7 K, 60000 kPa, Bellows volumetry | 1106.9
411.7 K, 70000 kPa, Bellows volumetry | 1111.9
411.7 K, 80000 kPa, Bellows volumetry | 1116.7
411.7 K, 90000 kPa, Bellows volumetry | 1120.6
411.7 K, 100000 kPa, Bellows volumetry | 1125.1
411.7 K, 110000 kPa, Bellows volumetry | 1129.3
411.7 K, 120000 kPa, Bellows volumetry | 1133.4
411.7 K, 130000 kPa, Bellows volumetry | 1137.4
411.7 K, 140000 kPa, Bellows volumetry | 1141.2
411.7 K, 150000 kPa, Bellows volumetry | 1145
411.7 K, 160000 kPa, Bellows volumetry | 1148.7
411.7 K, 170000 kPa, Bellows volumetry | 1152.3
411.7 K, 180000 kPa, Bellows volumetry | 1155.8
411.7 K, 190000 kPa, Bellows volumetry | 1159.2
411.7 K, 200000 kPa, Bellows volumetry | 1162.6
